In PubChem BioAssay AID1918932 (Molecular Pharmacology Branch, DTP, NCI, 2023):
Where “and” joins values, the source holds several entries; their conditions need not be identical. Equal values may be shown once.

Tested on: 171881-019-R-J1-PDC complex spheroid viability
Test: Anticancer human tumor 171881-019-R-J1-PDC patient-derived invasive breast carcinoma cell line growth inhibition
Details: for viability, T/C: stronger effect = lower value
Text: Multicellular complex tumor spheroid response to LSD1 Inhibitor Iadademstat in combination with a variety of drugs and investigational agents in selected tumor cell lines
The current study was undertaken to assess response to LSD1 inhibitors in combination with standard-of-care drugs and investigational agents in solid tumor complex spheroid models as well as in the K-562 leukemia. Complex spheroids include a stromal component modeled by human endothelial cells (HUVEC) and fibroblasts modeled by human mesenchymal stem cells (MSCs). The concentration ranges selected for each drug and investigational agent were based upon clinically achievable concentrations if the clinical Cmax of the agent was known.
Compounds. The drugs and investigational agents used in this study are listed on Table 1. All of the agents used, including staurosporine (NSC755774) and gemcitabine (NSC613327), were obtained from the Developmental Therapeutics Program, NCI. FDA-approved anticancer drugs are available from the NCI at http://dtp.nci.nih.gov/branches/dscb/oncology_drugset_explanation.html. Drugs and investigational agents were >95% pure by proton nuclear magnetic resonance (NMR) and liquid chromatography/mass spectrometry (LC/MS). Stock solutions were prepared at 400x in DMSO, stored at -70 degrees C, and diluted in fresh medium prior to their use. The final concentration of DMSO in cell culture wells never exceeded 0.25% (v/v). The FDA-approved anticancer drug set is available from the Developmental Therapeutics Program at https://dtp.cancer.gov/organization/dscb/obtaining/available_plates.htm. All drugs and investigational agents were tested over a range starting from a high concentration at or near the clinical Cmax and decreasing in half-log increments. If the clinical Cmax for an agent had not been determined, the highest concentration tested was 10 microM.
Cell Lines. The patient-derived cancer cell (PDC) lines: 292921-168-R-J2-PDC, K24384-001-R-PDC, and 521955-158-R2-J5-PDC pancreatic carcinomas, 556581-035-R-J1 ovarian carcinoma, 324938-238-R-J1-PDC, 855422-203-R-J1-PDC and 883617-216-R-J1-PDC urothelial bladder carcinomas, 743489-274-T-PDC renal cell carcinoma, 138582-R-J1 Merkel cell tumor, K60290-347-R-J1 and K57222-313-R-J1-PDC glioblastomas, 653999-131-R-J2-PDC, LG0703-F948-PDC, and 349418-098-R-PDC non-small cell lung carcinomas, 885512-296-R-J2-PDC, 171881-019-R-J1-PDC breast carcinomas and 186277-243-T-J2-PDC and 233499-124-R-J2-PDC colon carcinomas were obtained from the NCI Patient-Derived Models Repository (PDMR, https://pdmr.cancer.gov). The established cell lines NCI/ADR-RES (RRID:CVCL_14520 and OVCAR-5 (RRID:CVCL_1628) ovarian carcinomas, 786-O (RRID:CVCL_1051) and A498 (RRID:CVCL_A498) renal cell carcinoma, NCI-H211 (ATCC, cat. CRL-5824; RRID:CVCL_1529), NCI-H196 (ATCC, cat. CRL-5823, RRID:CVCL_1509), SW 1271 (ATCC, cat. CRL-2177, RRID:CVCL_1716) and NCI-H1876 (ATCC, cat. CRL-5902, RRID:CVCL_1503) small cell lung carcinomas, MDA-MB-231 (RRID:CVCL_0062) and MDA-MB-468 (RRID:CVCL_0419)breast carcinomas (10-12). Pooled donor human umbilical vein endothelial cells (HUVEC, Lonza, cat. CC-2519) and human mesenchymal stem cells (hMSC, Lonza, cat. PT-2501) were purchased from Lonza (Walkersville, MD).
Cell Culture. All cells were maintained in an incubator at 37 degrees C and 5% CO2 with 95% humidity. The PDC lines were cultured according to standard operating procedures established by the NCI PDMR (https://pdmr.cancer.gov). Briefly all PDCs were thawed and cultured in Matrigel-coated flasks prepared with a working solution of 1X Ham's F-12 nutrient mix, without supplementation (Invitrogen, Waltham, MA, cat. 11765054), 100 U/mL penicillin-streptomycin (Invitrogen, cat. 15140122), and 2.5% Matrigel (Corning Inc., Corning, NY, cat. 354248) for the first three passages. […]

[1] = curve of first compound, second compound 0.1 µM
[2] = curve of first compound, second compound 0.316 µM
[3] = curve of first compound, second compound 1 µM
[4] = curve of first compound, second compound 3.16 µM
[5] = curve of first compound, second compound 10 µM
[6] = second compound 0.1 µM, first compound 0.000316 µM
[7] = second compound 0.1 µM, first compound 0.001 µM
[8] = second compound 0.1 µM, first compound 0.00316 µM
[9] = second compound 0.1 µM, first compound 0.01 µM
[10] = second compound 0.1 µM, first compound 0.0316 µM
[11] = second compound 0.1 µM, first compound 0.1 µM
[12] = second compound 0.316 µM, first compound 0.000316 µM
[13] = second compound 0.316 µM, first compound 0.001 µM
[14] = second compound 0.316 µM, first compound 0.00316 µM
[15] = second compound 0.316 µM, first compound 0.01 µM
[16] = second compound 0.316 µM, first compound 0.0316 µM
[17] = second compound 0.316 µM, first compound 0.1 µM
[18] = second compound 1 µM, first compound 0.000316 µM
[19] = second compound 1 µM, first compound 0.001 µM
[20] = second compound 1 µM, first compound 0.00316 µM
[21] = second compound 1 µM, first compound 0.01 µM
[22] = second compound 1 µM, first compound 0.0316 µM
[23] = second compound 1 µM, first compound 0.1 µM
[24] = second compound 3.16 µM, first compound 0.000316 µM
[25] = second compound 3.16 µM, first compound 0.001 µM
[26] = second compound 3.16 µM, first compound 0.00316 µM
[27] = second compound 3.16 µM, first compound 0.01 µM
[28] = second compound 3.16 µM, first compound 0.0316 µM
[29] = second compound 3.16 µM, first compound 0.1 µM
[30] = second compound 10 µM, first compound 0.000316 µM
[31] = second compound 10 µM, first compound 0.001 µM
[32] = second compound 10 µM, first compound 0.00316 µM
[33] = second compound 10 µM, first compound 0.01 µM
[34] = second compound 10 µM, first compound 0.0316 µM
[35] = second compound 10 µM, first compound 0.1 µM
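Also: spheroids exposed to agents for 7 days after 3 days growth.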

Cn1ncnc1C1c2n[nH]c(=O)c3cc(F)cc(c23)NC1c1ccc(F)cc1 (stereo unspecified) + NC1CCC(NC2CC2c2ccccc2)CC1
IC50 [1]: > 0.1 µM | IC50 [2]: > 0.1 µM | IC50 [3]: > 0.1 µM | IC50 [4]: > 0.1 µM | IC50 [5]: > 0.1 µM | viability, T/C [6]: 92.3% | viability, T/C [7]: 79.1% | viability, T/C [8]: 88.4% | viability, T/C [9]: 79.3% | viability, T/C [10]: 81.4% | viability, T/C [11]: 85.7% | viability, T/C [12]: 82.1% | viability, T/C [13]: 76.3% | viability, T/C [14]: 69.3% | viability, T/C [15]: 71.5% | viability, T/C [16]: 81.8% | viability, T/C [17]: 76.7% | viability, T/C [18]: 78.9% | viability, T/C [19]: 85.5% | viability, T/C [20]: 70.7% | viability, T/C [21]: 71.7% | viability, T/C [22]: 73.5% | viability, T/C [23]: 79.9% | viability, T/C [24]: 90% | viability, T/C [25]: 78.8% | viability, T/C [26]: 59.2% | viability, T/C [27]: 86.7% | viability, T/C [28]: 78.8% | viability, T/C [29]: 85.7% | viability, T/C [30]: 73% | viability, T/C [31]: 84.5% | viability, T/C [32]: 71% | viability, T/C [33]: 76.3% | viability, T/C [34]: 72.6% | viability, T/C [35]: 88.6%

O=C(C=Cn1cnc(-c2cc(C(F)(F)F)cc(C(F)(F)F)c2)n1)NNc1cnccn1
viability, T/C (compound 0.00316 µM): 16.8% and 17.6% | viability, T/C (compound 0.01 µM): 12.1% and 12.7% | viability, T/C (compound 0.0316 µM): 4.83% and 4.44% | viability, T/C (compound 0.1 µM): 1.49% and 1.82% | viability, T/C (compound 0.316 µM): 1.62% and 1.88% | viability, T/C (compound 1 µM): 1.54% and 1.63% | IC50 (curve of compound): < 0.00316 µM

CC(C)CC(NC(=O)CNC(=O)c1cc(Cl)ccc1Cl)B1OC(=O)CC(CC(=O)O)(C(=O)O)O1 (stereo unspecified) + NC1CC1c1ccc(-c2cccc(O)c2)cc1
IC50 [1]: 0.000885 µM | IC50 [2]: 0.00106 µM | IC50 [3]: 0.000719 µM | IC50 [4]: < 0.000316 µM | IC50 [5]: < 0.000316 µM | viability, T/C [6]: 95% | viability, T/C [7]: 35.5% | viability, T/C [8]: 38.4% | viability, T/C [9]: 23% | viability, T/C [10]: 5.32% | viability, T/C [11]: 15.9% | viability, T/C [12]: 91.9% | viability, T/C [13]: 49.9% | viability, T/C [14]: 28.8% | viability, T/C [15]: 24.4% | viability, T/C [16]: 13.9% | viability, T/C [17]: 11.5% | viability, T/C [18]: 76.5% | viability, T/C [19]: 39.3% | viability, T/C [20]: 16.2% | viability, T/C [21]: 8.02% | viability, T/C [22]: 11.6% | viability, T/C [23]: 5.3% | viability, T/C [24]: 43.9% | viability, T/C [25]: 42.6% | viability, T/C [26]: 6.48% | viability, T/C [27]: 6.09% | viability, T/C [28]: 12.3% | viability, T/C [29]: 12.9% | viability, T/C [30]: 19.6% | viability, T/C [31]: 24.7% | viability, T/C [32]: 1.13% | viability, T/C [33]: 4.15% | viability, T/C [34]: 4.16% | viability, T/C [35]: 4.12%

CC1COCCN1c1cc(-c2ccnn2C)c2ccnc(-c3ccn[nH]3)c2n1 (stereo unspecified)
viability, T/C (compound 0.00316 µM): 55.2% and 49.8% | viability, T/C (compound 0.01 µM): 41.7% and 43.5% | viability, T/C (compound 0.0316 µM): 15.5% and 21.5% | viability, T/C (compound 0.1 µM): 7.25% and 9.16% | viability, T/C (compound 0.316 µM): 6.43% and 6.74% | viability, T/C (compound 1 µM): 5.29% and 6.58% | IC50 (curve of compound): 0.00491 µM and < 0.00316 µM

CC1COCCN1c1cc(C2(S(C)(=N)=O)CC2)nc(-c2ccnc3[nH]ccc23)n1 (stereo unspecified)
viability, T/C (compound 0.0316 µM): 94.6% and 94.9% | viability, T/C (compound 0.1 µM): 89.5% and 95.9% | viability, T/C (compound 0.316 µM): 98.2% and 91.3% | viability, T/C (compound 1 µM): 73% and 58.9% | viability, T/C (compound 3.16 µM): 17.2% and 21.2% | viability, T/C (compound 10 µM): 8.54% and 9.3% | IC50 (curve of compound): 1.61 µM and 1.33 µM

CC1COCCN1c1cc(C2(S(C)(=N)=O)CC2)nc(-c2ccnc3[nH]ccc23)n1 (stereo unspecified) + NC1CCC(NC2CC2c2ccccc2)CC1
IC50 [1]: 1.68 µM | IC50 [2]: 1.84 µM | IC50 [3]: 1.78 µM | IC50 [4]: 1.83 µM | IC50 [5]: 2.05 µM | viability, T/C [10]: 85.4% | viability, T/C [11]: 85% | viability, T/C (second compound 0.1 µM, first compound 0.316 µM): 96.4% | viability, T/C (second compound 0.1 µM, first compound 1 µM): 73.3% | viability, T/C (second compound 0.1 µM, first compound 3.16 µM): 20.8% | viability, T/C (second compound 0.1 µM, first compound 10 µM): 9.16% | viability, T/C [16]: 85.1% | viability, T/C [17]: 84.2% | viability, T/C (second compound 0.316 µM, first compound 0.316 µM): 94.5% | viability, T/C (second compound 0.316 µM, first compound 1 µM): 81.7% | viability, T/C (second compound 0.316 µM, first compound 3.16 µM): 21.7% | viability, T/C (second compound 0.316 µM, first compound 10 µM): 9.42% | viability, T/C [22]: 88.8% | viability, T/C [23]: 85.4% | viability, T/C (second compound 1 µM, first compound 0.316 µM): 87% | viability, T/C (second compound 1 µM, first compound 1 µM): 76.2% | viability, T/C (second compound 1 µM, first compound 3.16 µM): 23.7% | viability, T/C (second compound 1 µM, first compound 10 µM): 9.58% | viability, T/C [28]: 88.8% | viability, T/C [29]: 83% | viability, T/C (second compound 3.16 µM, first compound 0.316 µM): 86.1% | viability, T/C (second compound 3.16 µM, first compound 1 µM): 78.7% | viability, T/C (second compound 3.16 µM, first compound 3.16 µM): 24.2% | viability, T/C (second compound 3.16 µM, first compound 10 µM): 11.3% | viability, T/C [34]: 81.8% | viability, T/C [35]: 105% | viability, T/C (second compound 10 µM, first compound 0.316 µM): 84.7% | viability, T/C (second compound 10 µM, first compound 1 µM): 84.2% | viability, T/C (second compound 10 µM, first compound 3.16 µM): 29.4% | viability, T/C (second compound 10 µM, first compound 10 µM): 9.99%
